{
  "source": "paper PMC3182833",
  "about": "(Molecular microbiology, 2011)",
  "target": "T1, SoArsAB (Sporomusa ovata, UniProt F6MZ55+F6MZ56)",
  "T1 sequence (F6MZ55 1-350)": "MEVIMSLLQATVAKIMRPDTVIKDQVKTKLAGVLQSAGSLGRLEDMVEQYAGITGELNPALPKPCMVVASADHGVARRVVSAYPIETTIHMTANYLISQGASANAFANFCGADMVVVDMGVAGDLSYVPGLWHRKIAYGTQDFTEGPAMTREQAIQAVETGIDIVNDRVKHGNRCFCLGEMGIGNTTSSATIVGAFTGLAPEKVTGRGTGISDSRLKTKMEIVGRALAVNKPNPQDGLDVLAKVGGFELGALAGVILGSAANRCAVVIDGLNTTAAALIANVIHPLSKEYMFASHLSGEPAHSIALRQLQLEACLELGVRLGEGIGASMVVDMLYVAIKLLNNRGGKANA",
  "T1 sequence (F6MZ56 1-350)": "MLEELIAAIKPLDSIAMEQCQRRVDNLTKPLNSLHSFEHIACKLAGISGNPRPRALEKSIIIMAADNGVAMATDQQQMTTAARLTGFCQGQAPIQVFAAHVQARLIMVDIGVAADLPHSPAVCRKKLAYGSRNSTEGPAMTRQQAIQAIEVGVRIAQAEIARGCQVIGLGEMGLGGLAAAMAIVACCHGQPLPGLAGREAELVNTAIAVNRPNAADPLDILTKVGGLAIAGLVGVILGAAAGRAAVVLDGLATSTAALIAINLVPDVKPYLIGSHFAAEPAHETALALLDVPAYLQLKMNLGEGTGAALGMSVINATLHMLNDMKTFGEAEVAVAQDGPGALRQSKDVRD",
  "assay": "product",
  "type": "biochemical",
  "conditions": "NaMN co-substrate; 6 h incubation",
  "data": [
    {"smiles": "Cc1ccc(O)cc1", "note": "[P, p-cresol]", "values": [
      {"measurement": "product (alpha-p-cresolyl-ribotide) by RP-HPLC and ESI-MS", "value": "The product of SoArsAB when phenol, p-cresol, or DMB was used as substrate was purified"}
    ]}
  ]
}
